From patent US20190315711A1 (eXIthera Pharmaceuticals, Inc., priority 2016, published 2019) come the findings set out here.

Series [1] addresses human Factor XIa (Homo sapiens, UniProt P03951). The series is described as follows: Factor XIa enzyme inhibition assay (dose response, fluorogenic AMC substrate). Format: biochemical. Further details: Enzyme: Factor XIa. The conditions noted are these: purified enzyme; substrate 50 μM, enzyme 0.25 nM; read-out: hFXIa IC50. In short, it runs like this:
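Fluorogenic assay in 20 mM Hepes pH 7.4, 150 mM NaCl, 0.02% Tween 20 with 0.25 nM enzyme and 50 μM Glp-Pro-Arg-AMC (final). Fluorescence read every minute for 30 min at 30 °C after serial two-fold compound dilution; IC50 from four-parameter Hill fit of dose-response curves.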

In series [2] the target is T1, Thrombin (Homo sapiens, UniProt P00734).
T1 construct: Thrombin; 0.2 μM in 50% glycerol (7.34 μg/mL)
Briefly: Dose response assay for protease inhibitors: thrombin. The series is classed as biochemical. The settings on record: ratio versus Factor XIa.

Series [3] is described as follows: Caco-2 cell permeability assay (A-B and B-A). The series is classed as in vitro ADME. The settings on record: human; for Papp A→B at 60 min, 10 μM: A-B direction; for Papp B→A at 40 min, 10 μM: B-A direction. In short, it runs like this: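 Caco-2 monolayers were used 21-25 days post-seeding, with compound at 10 μM (1% DMSO) in HBSS-MES pH 6.5 or HBSS-HEPES pH 7.4 on the donor side. Incubation was at 37° C with shaking for 60 min (A−B) or 40 min (B−A). Donor and receiver samples were quantified by HPLC-MS/MS, and Papp and recovery were calculated.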

Series [4] concerns the target T2, Trypsin (Bos taurus, UniProt P00760).
T2 construct: gene PRSS1
T2 sequence (P00760 24-246): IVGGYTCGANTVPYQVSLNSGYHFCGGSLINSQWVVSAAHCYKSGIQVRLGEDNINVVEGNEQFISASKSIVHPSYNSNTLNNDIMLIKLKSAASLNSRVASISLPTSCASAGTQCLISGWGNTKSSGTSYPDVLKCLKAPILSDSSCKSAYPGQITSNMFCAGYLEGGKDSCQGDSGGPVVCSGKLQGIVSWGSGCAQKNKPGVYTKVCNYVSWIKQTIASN
Briefly: Dose response assay for protease inhibitors: trypsin. Format: biochemical. The settings on record: ratio versus Factor XIa.

Sequence of human Factor XIa (P03951 388-625 limits assumed): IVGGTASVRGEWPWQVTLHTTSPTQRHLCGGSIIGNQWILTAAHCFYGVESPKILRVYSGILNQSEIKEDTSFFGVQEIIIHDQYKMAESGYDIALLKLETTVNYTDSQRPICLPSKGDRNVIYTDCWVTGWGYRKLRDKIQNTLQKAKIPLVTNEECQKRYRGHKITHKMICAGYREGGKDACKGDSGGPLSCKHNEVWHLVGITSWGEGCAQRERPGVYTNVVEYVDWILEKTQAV
Sequence of human Factor XIa (P03951 19-387 partner limits assumed): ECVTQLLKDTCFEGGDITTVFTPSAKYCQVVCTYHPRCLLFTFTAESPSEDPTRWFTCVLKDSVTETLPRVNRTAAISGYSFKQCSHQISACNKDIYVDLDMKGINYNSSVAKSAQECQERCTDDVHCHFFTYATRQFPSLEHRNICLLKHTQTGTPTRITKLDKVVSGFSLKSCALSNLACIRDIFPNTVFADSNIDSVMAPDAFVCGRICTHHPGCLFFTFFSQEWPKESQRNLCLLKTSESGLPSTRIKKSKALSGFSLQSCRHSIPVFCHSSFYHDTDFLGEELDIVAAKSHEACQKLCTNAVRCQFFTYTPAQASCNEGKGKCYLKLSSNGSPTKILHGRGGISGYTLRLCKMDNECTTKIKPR

In the case of `CN(C(=O)[C@@H]1[C@@H](Cc2ccnc(N)c2)C(=O)N1C(=O)N[C@@H](C1CCCCC1)C(F)(F)F)c1ncccn1` [Compound 21], the IC50 – broadly, the concentration that inhibits the measured activity by half – in series [1] is below 0.01 µM. Also, the “Ratio: Thrombin/FXIa” value in series [2] is “H (“H” indicates 101-1000)”. Further, in series [3], the Papp A→B (as a rule, how fast a substance crosses the layer from the apical side) at 60 min, 10 μM was 11 to 30 ×10⁻⁶ cm/s and the Papp B→A – broadly, the apparent permeability from the basolateral to the apical side of a cell layer – at 40 min, 10 μM was at most 10 ×10⁻⁶ cm/s. In addition, the “Ratio: Trypsin/FXIa” value in series [4] is given as “G (“G” indicates 1-100)”.
Taken in the same sequence, the figures for `CC[C@@H](NC(=O)N1C(=O)[C@H](Cc2ccnc(N)c2)[C@H]1C(=O)N(C)c1ccncc1)c1ccccc1Cl` [Compound 95] were below 0.01 µM, “H (“H” indicates 101-1000)”, at most 10 ×10⁻⁶ cm/s, 31 to 50 ×10⁻⁶ cm/s and “G (“G” indicates 1-100)”.
The like results for `Cc1ccccc1N(C)C(=O)[C@@H]1[C@@H](Cc2ccnc(N)c2)C(=O)N1C(=O)N[C@@H](C1CCCCC1)C(F)(F)F` [Compound 15] were, in that order, 0.01 to 0.1 µM, “G (“G” indicates 1-100)”, 11 to 30 ×10⁻⁶ cm/s, at most 10 ×10⁻⁶ cm/s and “G (“G” indicates 1-100)”.
As to `CC[C@@H](NC(=O)N1C(=O)[C@H](Cc2ccnc(N)c2)[C@H]1C(=O)N(C)c1ccncc1)c1ccc(Cl)cc1` [Compound 89], in series [1], the half-inhibitory concentration (IC50) was below 0.01 µM. The “Ratio: Thrombin/FXIa” value in series [2] is listed as “H (“H” indicates 101-1000)”. In addition, in series [3], the Papp A→B at 60 min, 10 μM was at most 10 ×10⁻⁶ cm/s and the Papp B→A at 40 min, 10 μM was in the range of 31 to 50 ×10⁻⁶ cm/s. The “Ratio: Trypsin/FXIa” value in series [4] is “G (“G” indicates 1-100)”.
The like results for `CC[C@@H](NC(=O)N1C(=O)[C@H](Cc2ccnc(N)c2)[C@H]1C(=O)N(C)c1ccncc1)c1cccc(Cl)c1` [Compound 90] were, in that order, below 0.01 µM, “H (“H” indicates 101-1000)”, at most 10 ×10⁻⁶ cm/s, 11 to 30 ×10⁻⁶ cm/s and “G (“G” indicates 1-100)”.
Regarding `CC[C@@H](NC(=O)N1C(=O)[C@H](Cc2cc(C)nc(N)c2)[C@H]1C(=O)N(C)c1ccccc1)C1CCCCC1` [Compound 91], the IC50 in series [1] was below 0.01 µM. In series [2], the “Ratio: Thrombin/FXIa” value was “H (“H” indicates 101-1000)”. In series [3], this molecule gave an apparent permeability from apical to basolateral (Papp A→B) at 60 min, 10 μM of 11 to 30 ×10⁻⁶ cm/s and a Papp B→A at 40 min, 10 μM of at most 10 ×10⁻⁶ cm/s. Further, in series [4], the “Ratio: Trypsin/FXIa” value is “G (“G” indicates 1-100)”.
As for `CCC[C@@H](NC(=O)N1C(=O)[C@H](Cc2ccnc(N)c2)[C@H]1C(=O)N(C)c1ccncc1)c1ccccc1` [Compound 86], in series [1], the half-maximal inhibitory concentration (IC50) is below 0.01 µM. Also, the “Ratio: Thrombin/FXIa” value in series [2] is reported as “I (“I” indicates >500)”. Moreover, in series [3], the apical-to-basolateral permeability (Papp A→B) at 60 min, 10 μM is at most 10 ×10⁻⁶ cm/s and the Papp B→A at 40 min, 10 μM fell in the range of 31 to 50 ×10⁻⁶ cm/s. For the same molecule, the “Ratio: Trypsin/FXIa” value in series [4] is listed as “G (“G” indicates 1-100)”.
The like results for `CC[C@@H](NC(=O)N1C(=O)[C@H](Cc2ccnc(N)c2)[C@H]1C(=O)N(C)c1ccccc1)C1CC1` [Compound 46] were, in that order, 0.01 to 0.1 µM, “G (“G” indicates 1-100)”, 11 to 30 ×10⁻⁶ cm/s, above 50 ×10⁻⁶ cm/s and “G (“G” indicates 1-100)”.
Taken in the same sequence, the figures for `CN(C(=O)[C@@H]1[C@@H](Cc2ccnc(N)c2)C(=O)N1C(=O)N[C@@H](C1CCCCC1)C(F)(F)F)c1ccncc1` [Compound 18] were below 0.01 µM, “H (“H” indicates 101-1000)”, 11 to 30 ×10⁻⁶ cm/s, 11 to 30 ×10⁻⁶ cm/s and “G (“G” indicates 1-100)”.
The like results for `CC[C@@H](NC(=O)N1C(=O)[C@H](Cc2ccnc(N)c2)[C@H]1C(=O)N(C)c1ccncc1)c1cccnc1` [Compound 59] were, in that order, below 0.01 µM, “H (“H” indicates 101-1000)”, at most 10 ×10⁻⁶ cm/s, at most 10 ×10⁻⁶ cm/s and “G (“G” indicates 1-100)”.
